Where no end group is shown, it is not given here.
Key:
[1] = system: PC-9 cells; test: Orthotopic lung injection xenograph model, PC-9 cells in nude mice; type: in vivo; conditions: 50 nmoles i.p. once every three days, 25 days
Procedure: The metastatic activity of cancer cells in vivo after treatment with MANS peptide or BIO-11006 was assessed in the orthotopic lung injection xenograph model. After pretreatment with either PBS, or PBS+MANS, BIO-11006 (SEQ ID NO: 106), or the control RNS peptide at 100 μM for 4 hours, PC-9 cells were injected into the left lobe of the lung of nude mice. Seven days later, these mice were given systemic treatment with either PBS only (Con), RNS (additional control peptide), MANS or BIO-11006 at 50 nmoles per intraperitoneal injection once every three days. At 25 days (6 injections) post-seeding of these tumor cells, mice were sacrificed and the number of metastasized tumor nodules in the contralateral lung and other organs was counted.

[2] = system: A549 cells; test: Anti-metastatic efficacy in SCID mice given A549 cells via the tail vein; type: in vivo; conditions: Day 53; for No. of metastatic nodules in lungs Mean ± SEM: aerosol 100 μM every other day for 7 weeks
Procedure: Female NOD.CB17-Prkdc^scid/NCrHsd, Mus musculus mice (Harlan, The Netherlands), housed in individually ventilated cages, were randomized into six groups of eight mice each. A549 cells (2.5×10^6) were injected into the mice via the tail vein. The control group received aerosolized vehicle PBS; while the groups 2 and 3 received the aerosolized test compound BIO-11006 either from −1 day before the cancer cells injection (group 2) or from +3 days after the cancer cell injection (group 3) on every other day for 7 weeks via nebulizer (Aeroneb Lab). Groups 4 and 5 received the aerosolized test compound MANS peptide either from −1 day before the cancer cell line injection (group 4) or from +3 days after the cell line injection (group 5) on every other day for 7 weeks via a nebulizer (Aeroneb Lab). For aerosol delivery, solution of each test compound (100 μM) was prepared in PBS, pH 7.0. For each treatment, 5 mL of test compound solution was aerosolized over 30 minutes into a chamber containing four mice at a time. The mice were monitored for body weight every other day for 7 weeks.
One group of mice (n=7) served as normal control. These were untreated naïve mice used to monitor the health status of mice during the study period. All animals from all groups were sacrificed on Day 53. FIG. 15 compares number of metastatic nodules in lungs after respective administration of BIO-11006 and MANS peptide on Day 53 following A549 cell injection. […] There were few focal tumor nodules in ⅞ of mice treated with BIO-11006 peptide starting at either Day −1 or Day +3 relative to A549 cell injection.

[3] = system: Human adenocarcinoma cells (PC-9); test: Orthotopic lung cancer implantation model in SCID mice, i.p. versus inhalation (Example 4); type: in vivo
Procedure: In this study, inhibition of lung cancer metastasis by peptide BIO-11006 in an orthotopic lung cancer implantation model in SCID mice assessed. Human adenocarcinoma cells (PC-9) (1-2×10^5) were suspended in 40 μL of PBS, pH 7.4 containing 0.5 mg/mL of Matrigel™ (BD Bioscience) and injected into the left lung of SCID mice (n=3) using a syringe with 29 gauge needle. BIO-11006 (100 μM, in PBS) was administered either (a) by i.p. injection (50 μL) once daily for 22 days starting at 3 days post cancer cell inoculation or (b) by aerosol inhalation using a Nebulizer Delivery System (Aeroneb Lab) over 30 min once daily for 22 days starting at 3 days post cancer cell inoculation. […] Both i.p. and aerosol administration of BIO-11006 reduced cancer cell metastasis by more than 50% in the right lung and heart, and 100% in the diaphragm. Thus, both routes of administration had significant inhibitory effects on cancer cell metastasis.

[4] = system: A549; test: Transwell migration assay, A549 cells; type: cell-based, human; conditions: 12 hr
Procedure: The human adenocarcinoma-derived alveolar epithelial cell line A549 (an invasive cell line) was obtained from the American Type Culture Collection (ATCC) and was cultured in RPMI-1640 supplemented with 10% fetal bovine serum and 100 U/ml penicillin/streptomycin, in 75 cm^2 tissue culture flasks. The cells reached confluence by the third day of culture at 37° C. in an atmosphere of 95% air and 5% CO2 and were maintained by serial passage.
The test peptides (MANS, RNS, BIO-11006, BIO-11000, BIO-11002, BIO-91200, and BIO-10901) were dissolved in PBS at a pH of 7.0; slow vortex mixing for about two hours aided solubility.
Transwell plates (24-well, […]; Costar, Cambridge, Mass., USA) were used to conduct the migration assay. The lower chambers of the transwell plates were filled with 600 μl of basal medium containing 10% FBS. The cells (1×10^5) were suspended in 100 μl of basal medium containing 1% BSA and added to the upper chamber, and the plates incubated at 37° C. with 5% CO2 for 12 hr in PBS (control), or the indicated test peptides at 10, 25 or 50 μM. The cells on the upper surface of the filters were removed using cotton swabs. The cells that migrated to the lower surface of the filters were washed, fixed, and stained with hematoxylin and counted under the microscope. The percent change in migration is determined by counting the number of cells that migrated to the lower surface of the filters. At least four separate microscopic fields are counted per membrane, with a total of three replicate experiments at each concentration. The statistics software “Prizm” was used for data analysis.

[5] = aerosol inhalation 100 μM over 30 min once daily for 22 days from 3 days post inoculation
[6] = i.p. injection 50 μL of 100 μM once daily for 22 days from 3 days post inoculation

Substance: N-acetyl-GAQFSKTAAK (Ac-GAQFSKTAAK; listed as Homo sapiens) [BIO-11006]
- Metastases (affected mice/total mice) Diaphragm [1]: 0/2
- Metastases (affected mice/total mice) Heart [1]: 0/2
- Metastases (affected mice/total mice) Intestines [1]: 0/2
- Metastases (affected mice/total mice) Spleen [1]: 0/2
- No. of Metastatic Lung Tumors Mean ± SE (L't) ([1]; left lung): 0; 0
- No. of Metastatic Lung Tumors Mean ± SE (R't) ([1]; right lung): 0; 0
- Tumor Size (mm) Mean ± SE ([1]; tumor at site of injection, cells pretreated 100 μM 4 hours): 1.61 ± 0.37 mm
- animals with few focal tumor nodules ([2]; +3 Day treatment group): Few focal tumor nodules in 7/8
- distant metastasis ([2]; +3 Day treatment group): No distant metastasis
- No. of metastatic nodules in lungs Mean ± SEM ([2]; +3 Day treatment group): 21 ± 6
- animals with few focal tumor nodules ([2]; −1 Day treatment group): Few focal tumor nodules in 7/8
- distant metastasis ([2]; −1 Day treatment group): No distant metastasis
- No. of metastatic nodules in lungs Mean ± SEM ([2]; −1 Day treatment group): 34 ± 14
- reduction of cancer cell metastasis in the diaphragm [3, 5]: 100%
- reduction of cancer cell metastasis in the right lung and heart [3, 5]: more than 50%
- reduction of cancer cell metastasis in the diaphragm [3, 6]: 100%
- reduction of cancer cell metastasis in the right lung and heart [3, 6]: more than 50%
- cell numbers in comparison to control, RNS peptide and MANS peptide ([4]; A549, 25 μm, FIG. 11): significantly reduced cell numbers
- migration index numbers relative to control and to RNS peptide ([4]; A549, 50 μm): increased migration index numbers
- migrated cell numbers relative to control and to RNS peptide ([4]; A549, 50 μm, FIG. 11): decreased migrated cell numbers

— patent US11466054B2, “Inhibitors of metastasis” (BIOMARCK PHARMACEUTICALS LTD., priority 2013, dated 2022)
